System: MV-4-11 cells
Assay: Gene expression microarray analysis (Affymetrix PrimeView) and GSEA
Format: cell-based, human
Design: RFU PODN (11730768_x_at) / Fold change /veh PODN (11730768_x_at) / RFU LINC00158 (11744669_a_at) / Fold change /veh LINC00158 (11744669_a_at) / RFU DUSP10 (11751237_a_at) / Fold change /veh DUSP10 (11751237_a_at) / RFU ID3 (11757404_x_at) / Fold change /veh ID3 (11757404_x_at) / RFU PLEKHG5 (11737974_s_at) / Fold change /veh PLEKHG5 (11737974_s_at) / RFU LRRC4B (11730491_at) / Fold change /veh LRRC4B (11730491_at) / RFU GIMAP4 (11747438_a_at) / Fold change /veh GIMAP4 (11747438_a_at) / RFU KRT8 (11758183_x_at) / Fold change /veh KRT8 (11758183_x_at) / RFU CNN1 (11734310_a_at) / Fold change /veh CNN1 (11734310_a_at) / RFU VPS37D (11726825_at) / Fold change /veh VPS37D (11726825_at) / RFU C10orf10 (11716522_x_at) / Fold change /veh C10orf10 (11716522_x_at) / RFU KIR2DL2 /// KIR2DL4 /// KIR2DL5A /// KIR2DL5B /// KIR2DS1 /// KIR2DS2 /// KIR2DS3 /// KIR2DS4 /// KIR3DL3 /// KIR3DL3 /// KIR3DS1 (11738374_at) / Fold change /veh KIR2DL2 /// KIR2DL4 /// KIR2DL5A /// KIR2DL5B /// KIR2DS1 /// KIR2DS2 /// KIR2DS3 /// KIR2DS4 /// KIR3DL3 /// KIR3DL3 /// KIR3DS1 (11738374_at) / RFU C1QL1 (11718748_at) / Fold change /veh C1QL1 (11718748_at) / RFU TMPRSS4 (11747572_a_at) / Fold change /veh TMPRSS4 (11747572_a_at) / RFU HAMP (11756126_x_at) / Fold change /veh HAMP (11756126_x_at) / RFU RNFT2 (11725882_a_at) / Fold change /veh RNFT2 (11725882_a_at) / RFU NR4A2 (11747474_a_at) / Fold change /veh NR4A2 (11747474_a_at) / RFU ABCC12 (11746883_a_at) / Fold change /veh ABCC12 (11746883_a_at) / RFU TMEM136 (11760407_x_at) / Fold change /veh TMEM136 (11760407_x_at) / RFU CLDN22 /// WWC2 (11732394_at) / Fold change /veh CLDN22 /// WWC2 (11732394_at) / RFU HLA-DPB1 (11760878_x_at) / Fold change /veh HLA-DPB1 (11760878_x_at) / RFU SPINT1 (11716480_a_at) / Fold change /veh SPINT1 (11716480_a_at) / RFU GAP43 (11754022_s_at) / Fold change /veh GAP43 (11754022_s_at) / RFU A4GNT (11735810_at) / Fold change /veh A4GNT (11735810_at) / RFU PRB3 (11715151_x_at) / Fold change /veh PRB3 (11715151_x_at) / RFU TUBB4B (11761932_at) / Fold change /veh TUBB4B (11761932_at) / RFU CAPN14 (11732068_a_at) / Fold change /veh CAPN14 (11732068_a_at) / RFU TMCC2 (11721928_a_at) / Fold change /veh TMCC2 (11721928_a_at) / RFU IRGQ (11745062_a_at) / Fold change /veh IRGQ (11745062_a_at) / RFU FAM174B (11720279_a_at) / Fold change /veh FAM174B (11720279_a_at) / RFU TMPRSS4 (11748680_a_at) / Fold change /veh TMPRSS4 (11748680_a_at) / RFU FAM212B (11763350_a_at) / Fold change /veh FAM212B (11763350_a_at) / RFU PLEKHG5 (11743358_a_at) / Fold change /veh PLEKHG5 (11743358_a_at) / RFU ZSCAN30 (11745921_a_at) / Fold change /veh ZSCAN30 (11745921_a_at) / RFU CMKLR1 (11741424_a_at) / Fold change /veh CMKLR1 (11741424_a_at) / RFU LOC101060620 /// MAPK8IP1 (11723275_at) / Fold change /veh LOC101060620 /// MAPK8IP1 (11723275_at) / RFU SPTSSB (11747773_x_at) / Fold change /veh SPTSSB (11747773_x_at) / RFU PRSS12 (11739890_at) / Fold change /veh PRSS12 (11739890_at) / RFU BIN1 (11741810_x_at) / Fold change /veh BIN1 (11741810_x_at) / RFU WNT11 (11732464_a_at) / Fold change /veh WNT11 (11732464_a_at) / RFU C10orf10 (11716521_a_at) / Fold change /veh C10orf10 (11716521_a_at) / RFU C5orf56 (11738089_at) / Fold change /veh C5orf56 (11738089_at) / RFU CYB561 (11721691_x_at) / Fold change /veh CYB561 (11721691_x_at) / RFU ANKRD19P (11752326_a_at) / Fold change /veh ANKRD19P (11752326_a_at) / RFU OR2T12 /// OR2T33 /// OR2T8 (11738714_s_at) / Fold change /veh OR2T12 /// OR2T33 /// OR2T8 (11738714_s_at) / RFU VCAN (11748164_a_at) / Fold change /veh VCAN (11748164_a_at) / RFU JSRP1 (11732532_at) / Fold change /veh JSRP1 (11732532_at) / RFU KRTAP10-11 (11738290_x_at) / Fold change /veh KRTAP10-11 (11738290_x_at) / RFU MYO3A (11730013_a_at) / Fold change /veh MYO3A (11730013_a_at) / RFU EBF3 (11725865_a_at) / Fold change /veh EBF3 (11725865_a_at) / RFU CAMK2N1 (11719241_x_at) / Fold change /veh CAMK2N1 (11719241_x_at) / RFU C5orf56 (11738088_a_at) / Fold change /veh C5orf56 (11738088_a_at) / RFU OLFML3 (11715873_a_at) / Fold change /veh OLFML3 (11715873_a_at) / RFU LOC100653217 /// NTM (11731650_a_at) / Fold change /veh LOC100653217 /// NTM (11731650_a_at) / RFU MAPK11 (11762145_a_at) / Fold change /veh MAPK11 (11762145_a_at) / RFU FIZ1 (11724087_x_at) / Fold change /veh FIZ1 (11724087_x_at) / RFU OASL (11726364_x_at) / Fold change /veh OASL (11726364_x_at) / RFU SOX15 (11748057_x_at) / Fold change /veh SOX15 (11748057_x_at) / RFU CD79A (11719716_a_at) / Fold change /veh CD79A (11719716_a_at) / RFU HIST1H1D (11736915_at) / Fold change /veh HIST1H1D (11736915_at) / RFU CASKIN2 (11723855_a_at) / Fold change /veh CASKIN2 (11723855_a_at) / RFU LOC730098 (11760151_x_at) / Fold change /veh LOC730098 (11760151_x_at) / RFU OR4N2 (11742367_at) / Fold change /veh OR4N2 (11742367_at) / RFU PRRT2 (11749266_a_at) / Fold change /veh PRRT2 (11749266_a_at) / RFU SNX32 (11753110_a_at) / Fold change /veh SNX32 (11753110_a_at) / RFU CDHR5 (11726645_a_at) / Fold change /veh CDHR5 (11726645_a_at) / RFU RCAN1 (11760418_a_at) / Fold change /veh RCAN1 (11760418_a_at) / RFU FAM167A (11723789_a_at) / Fold change /veh FAM167A (11723789_a_at) / RFU FAM26E (11764081_at) / Fold change /veh FAM26E (11764081_at) / RFU ISYNA1 (11749810_s_at) / Fold change /veh ISYNA1 (11749810_s_at) / RFU ACY1 (11761880_at) / Fold change /veh ACY1 (11761880_at) / RFU 11764098_at / Fold change /veh 11764098_at / RFU SAMD14 (11745864_x_at) / Fold change /veh SAMD14 (11745864_x_at) / RFU NPB (11741838_a_at) / Fold change /veh NPB (11741838_a_at) / RFU TMPRSS6 (11731388_a_at) / Fold change /veh TMPRSS6 (11731388_a_at) / RFU KRTAP10-2 (11738614_at) / Fold change /veh KRTAP10-2 (11738614_at) / RFU ARHGAP8 /// PRR5-ARHGAP8 (11727945_x_at) / Fold change /veh ARHGAP8 /// PRR5-ARHGAP8 (11727945_x_at) / RFU KRTAP5-7 /// NADSYN1 (11734609_at) / Fold change /veh KRTAP5-7 /// NADSYN1 (11734609_at) / RFU RASL12 (11751679_a_at) / Fold change /veh RASL12 (11751679_a_at) / RFU CDKN2B (11736163_a_at) / Fold change /veh CDKN2B (11736163_a_at) / RFU PRF1 (11729649_at) / Fold change /veh PRF1 (11729649_at) / RFU, ZNF638 /// ZNF638-IT1 / Fold change vs veh, ZNF638 /// ZNF638-IT1 / RFU, PANK3 / Fold change vs veh, PANK3 / RFU, SH3YL1 / Fold change vs veh, SH3YL1 / RFU, ZEB2 / Fold change vs veh, ZEB2 / RFU, NRIP1 / Fold change vs veh, NRIP1 / RFU, PTTG1IP / Fold change vs veh, PTTG1IP / RFU, CAPN2 / Fold change vs veh, CAPN2 / RFU, MED14 / Fold change vs veh, MED14 / RFU, SNORA58 / Fold change vs veh, SNORA58 / RFU, C1orf63 / Fold change vs veh, C1orf63 / RFU, LRRFIP1 / Fold change vs veh, LRRFIP1 / RFU, NDUFAF7 / Fold change vs veh, NDUFAF7 / RFU, SLC12A2 / Fold change vs veh, SLC12A2 / RFU, IBTK / Fold change vs veh, IBTK / RFU, ESF1 / Fold change vs veh, ESF1 / Fold change vs veh, TMEM50B / RFU, TAOK1 / Fold change vs veh, TAOK1 / RFU, ACBD3 / Fold change vs veh, ACBD3 / RFU, TMA16 / Fold change vs veh, TMA16 / RFU, RWDD3 / Fold change vs veh, RWDD3 / RFU, BCAT1 / Fold change vs veh, BCAT1 / RFU, EDEM3 / Fold change vs veh, EDEM3 / RFU, TMEM33 / Fold change vs veh, TMEM33 / RFU, WDR75 / Fold change vs veh, WDR75 / RFU, AHCTF1 / Fold change vs veh, AHCTF1 / RFU, TFRC / Fold change vs veh, TFRC / RFU, ZDHHC17 / Fold change vs veh, ZDHHC17 / RFU, NOM1 / Fold change vs veh, NOM1 / RFU, ARL8B / Fold change vs veh, ARL8B / RFU, ZBTB11 / Fold change vs veh, ZBTB11 / RFU, TAMM41 / Fold change vs veh, TAMM41 / RFU, KIAA1704 /// LOC100996395 / Fold change vs veh, KIAA1704 /// LOC100996395 / RFU, ING1 / Fold change vs veh, ING1 / RFU, TRMT61B / Fold change vs veh, TRMT61B / RFU, FUBP3 / Fold change vs veh, FUBP3 / RFU, TP53 / Fold change vs veh, TP53 / RFU, TNKS2 / Fold change vs veh, TNKS2 / RFU, ZFP14 / Fold change vs veh, ZFP14 / RFU, ACTR2 / Fold change vs veh, ACTR2 / RFU, PPP3R1 / Fold change vs veh, PPP3R1 / RFU, PIK3R1 / Fold change vs veh, PIK3R1 / RFU, HNRNPA1 / Fold change vs veh, HNRNPA1 / RFU, RNF170 / Fold change vs veh, RNF170 / RFU, ZNF28 / Fold change vs veh, ZNF28 / RFU, RNGTT / Fold change vs veh, RNGTT / RFU, OGT / Fold change vs veh, OGT / RFU, BRD1 / Fold change vs veh, BRD1 / RFU, MARS / Fold change vs veh, MARS / RFU, ZNF655 / Fold change vs veh, ZNF655 / RFU, FAHD1 / Fold change vs veh, FAHD1 / RFU, BDP1 / Fold change vs veh, BDP1 / RFU, LRRCC1 / Fold change vs veh, LRRCC1 / RFU, ARID1A / Fold change vs veh, ARID1A / RFU, ZNF146 / Fold change vs veh, ZNF146 / RFU, ZNF330 / Fold change vs veh, ZNF330 / RFU, GPN3 / Fold change vs veh, GPN3 / RFU, C9orf123 / Fold change vs veh, C9orf123 / RFU, N4BP2L2 / Fold change vs veh, N4BP2L2 / RFU, ARFIP1 / Fold change vs veh, ARFIP1 / RFU, FAM179B / Fold change vs veh, FAM179B / RFU, BCL10 / Fold change vs veh, BCL10 / RFU, UHRF1BP1L / Fold change vs veh, UHRF1BP1L / RFU, BET1 / Fold change vs veh, BET1 / RFU, CNOT2 / Fold change vs veh, CNOT2 / RFU, ZNF268 / Fold change vs veh, ZNF268 / Fold change vs veh, ZNF507 / RFU, DGCR2 / Fold change vs veh, DGCR2 / RFU, WDSUB1 / Fold change vs veh, WDSUB1 / Fold change vs veh, HSP90B1 /// MIR3652 / RFU, ADSS / Fold change vs veh, ADSS / RFU, GK / Fold change vs veh, GK / RFU, ZNF148 / Fold change vs veh, ZNF148 / RFU, TAF9 / Fold change vs veh, TAF9 / RFU, SLC1A5 / Fold change vs veh, SLC1A5 / RFU, SLMO2 / Fold change vs veh, SLMO2 / RFU, ABCC4 / Fold change vs veh, ABCC4 / RFU, LOC101060439 /// RAP1B / Fold change vs veh, LOC101060439 /// RAP1B / RFU, RFX7 / Fold change vs veh, RFX7 / RFU, GTPBP10 / Fold change vs veh, GTPBP10 / RFU, CNEP1R1 / Fold change vs veh, CNEP1R1 / RFU, BIVM-ERCC5 /// ERCC5 / Fold change vs veh, BIVM-ERCC5 /// ERCC5 / RFU, ILF3 / Fold change vs veh, ILF3 / RFU 11762660_at / Fold change /veh 11762660_at / RFU VCAN (11757783_s_at) / Fold change /veh VCAN (11757783_s_at) / RFU DDX43 (11728927_at) / Fold change /veh DDX43 (11728927_at) / RFU KRT8 (11758188_x_at) / Fold change /veh KRT8 (11758188_x_at) / RFU NKD1 (11759106_at) / Fold change /veh NKD1 (11759106_at) / RFU SRD5A1 (11742802_a_at) / Fold change /veh SRD5A1 (11742802_a_at) / RFU TPSAB1 /// TPSB2 (11721975_s_at) / Fold change /veh TPSAB1 /// TPSB2 (11721975_s_at) / RFU GSTM3 (11746129_a_at) / Fold change /veh GSTM3 (11746129_a_at) / RFU IL23R (11737362_x_at) / Fold change /veh IL23R (11737362_x_at) / RFU TMEM51 (11727254_a_at) / Fold change /veh TMEM51 (11727254_a_at) / RFU PIWIL2 (11732686_x_at) / Fold change /veh PIWIL2 (11732686_x_at) / RFU ORM1 (11744905_x_at) / Fold change /veh ORM1 (11744905_x_at) / RFU CCDC152 (11743942_at) / Fold change /veh CCDC152 (11743942_at) / RFU ECM1 (11717891_a_at) / Fold change /veh ECM1 (11717891_a_at) / RFU IL23R (11748794_a_at) / Fold change /veh IL23R (11748794_a_at) / RFU TNFAIP8L3 (11732012_x_at) / Fold change /veh TNFAIP8L3 (11732012_x_at) / RFU MBOAT4 (11741988_at) / Fold change /veh MBOAT4 (11741988_at) / RFU 11764193_at / Fold change /veh 11764193_at / RFU TMEM53 (11763286_at) / Fold change /veh TMEM53 (11763286_at) / RFU MAGEB2 (11727129_at) / Fold change /veh MAGEB2 (11727129_at) / RFU TMEM200A (11744735_a_at) / Fold change /veh TMEM200A (11744735_a_at) / RFU CCDC152 (11751479_a_at) / Fold change /veh CCDC152 (11751479_a_at) / RFU FAM211A (11726209_a_at) / Fold change /veh FAM211A (11726209_a_at) / RFU RGS16 (11746705_a_at) / Fold change /veh RGS16 (11746705_a_at) / RFU VCAN (11755009_s_at) / Fold change /veh VCAN (11755009_s_at) / RFU RHOB (11743442_s_at) / Fold change /veh RHOB (11743442_s_at) / RFU RGS16 (11720943_a_at) / Fold change /veh RGS16 (11720943_a_at) / RFU RGS16 (11720944_at) / Fold change /veh RGS16 (11720944_at) / RFU, VPS4B / Fold change vs veh, VPS4B / RFU, CREB1 / Fold change vs veh, CREB1 / RFU, DNAJC13 / Fold change vs veh, DNAJC13 / RFU, GNAQ / Fold change vs veh, GNAQ / RFU, CDK5R1 / Fold change vs veh, CDK5R1 / RFU, ZRANB3 / Fold change vs veh, ZRANB3 / RFU, CUL4A / Fold change vs veh, CUL4A / RFU, CCNY / Fold change vs veh, CCNY / RFU, UFL1 / Fold change vs veh, UFL1 / RFU, COG3 / Fold change vs veh, COG3 / RFU, DIAPH2 / Fold change vs veh, DIAPH2 / RFU, SKA2 / Fold change vs veh, SKA2 / RFU, AFF3 / Fold change vs veh, AFF3 / RFU, LMF1 / Fold change vs veh, LMF1 / RFU, IPO11 / Fold change vs veh, IPO11 / RFU, DFFB / Fold change vs veh, DFFB / RFU, FOXP1 / Fold change vs veh, FOXP1 / RFU, CARD8 / Fold change vs veh, CARD8 / RFU, STRN3 / Fold change vs veh, STRN3 / RFU, ADK / Fold change vs veh, ADK / RFU, RASSF2 / Fold change vs veh, RASSF2 / RFU, WIPF1 / Fold change vs veh, WIPF1 / RFU, LARP1B / Fold change vs veh, LARP1B / RFU, RASA1 / Fold change vs veh, RASA1 / RFU, RB1 / Fold change vs veh, RB1 / RFU, PPFIA1 / Fold change vs veh, PPFIA1 / RFU, MAT2A / Fold change vs veh, MAT2A / RFU, CCT5 / Fold change vs veh, CCT5 / RFU, WDR92 / Fold change vs veh, WDR92 / RFU, CUX1 / Fold change vs veh, CUX1 / RFU, TTC7A / Fold change vs veh, TTC7A / RFU, TMEM135 / Fold change vs veh, TMEM135 / RFU, DEPTOR / Fold change vs veh, DEPTOR / RFU, CPM / Fold change vs veh, CPM / RFU, DNAJB6 / Fold change vs veh, DNAJB6 / RFU, CACNA2D3 / Fold change vs veh, CACNA2D3 / RFU, DTX4 / Fold change vs veh, DTX4 / RFU, TFCP2 / Fold change vs veh, TFCP2 / RFU, GMCL1 /// GMCL1P1 / Fold change vs veh, GMCL1 /// GMCL1P1 / RFU, AEBP2 / Fold change vs veh, AEBP2 / RFU, SNHG1 /// SNORD22 /// SNORD25 /// SNORD26 /// SNORD27 /// SNORD28 /// SNORD29 /// SNORD31 / Fold change vs veh, SNHG1 /// SNORD22 /// SNORD25 /// SNORD26 /// SNORD27 /// SNORD28 /// SNORD29 /// SNORD31 / Fold change (Aza/veh), C12orf56 (ProbeSet 11735607_a_at) / Fold change (ACY-1035/veh), C12orf56 (ProbeSet 11735607_a_at) / Fold change (Aza/veh), FGFR1OP (ProbeSet 11751329_s_at) / Fold change (ACY-1035/veh), FGFR1OP (ProbeSet 11751329_s_at) / Fold change (Aza/veh), VPS36 (ProbeSet 11739960_a_at) / Fold change (ACY-1035/veh), VPS36 (ProbeSet 11739960_a_at) / RFU SYPL1 (11715823_x_at) / Fold change /veh SYPL1 (11715823_x_at) / RFU IGFBP7 (11715501_s_at) / Fold change /veh IGFBP7 (11715501_s_at) / RFU REEP3 (11722064_at) / Fold change /veh REEP3 (11722064_at) / RFU IGLL1 (11728026_x_at) / Fold change /veh IGLL1 (11728026_x_at): dose or concentration left out as unconfirmed
Settings: MV-4-11 cells, 48 hours

Nc1ncn([C@@H]2O[C@H](CO)[C@@H](O)[C@H]2O)c(=O)n1 [azacitidine]
RFU KRTAP5-7 /// NADSYN1 (11734609_at): 11.87 RFU

— PMC5218480 (PLoS ONE, 2017)
